Assay results published in publication PMC3798130 (Angewandte Chemie (International Ed. in English), 2013).

Legend:
JMJD2E (KDM4E) [1] = target: T1, JMJD2E (KDM4E) (Homo sapiens, UniProt B2RXH2); assay: MALDI-TOF MS activity assay; assay type: biochemical; conditions: 1 hour, 25 °C, pH 7.5, mass gain
T1 sequence (B2RXH2 1-506): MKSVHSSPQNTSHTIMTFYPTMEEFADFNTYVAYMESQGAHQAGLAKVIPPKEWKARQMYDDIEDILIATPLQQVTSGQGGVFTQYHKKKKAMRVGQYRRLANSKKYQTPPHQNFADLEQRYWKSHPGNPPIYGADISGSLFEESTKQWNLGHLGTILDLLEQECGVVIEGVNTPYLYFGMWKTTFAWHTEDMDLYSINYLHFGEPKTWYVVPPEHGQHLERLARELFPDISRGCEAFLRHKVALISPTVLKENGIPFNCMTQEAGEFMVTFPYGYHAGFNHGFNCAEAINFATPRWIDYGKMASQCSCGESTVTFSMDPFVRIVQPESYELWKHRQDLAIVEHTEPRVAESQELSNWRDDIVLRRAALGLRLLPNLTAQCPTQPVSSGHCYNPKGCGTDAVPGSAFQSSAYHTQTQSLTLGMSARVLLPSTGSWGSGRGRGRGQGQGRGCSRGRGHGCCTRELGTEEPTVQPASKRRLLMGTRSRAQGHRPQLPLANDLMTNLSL

JMJD2E (KDM4E) [2] = target: T1, JMJD2E (KDM4E); assay: Kinetic parameters for reactions of lysine analogue peptides with JMJD2E; assay type: biochemical; conditions: MALDI-TOF initial rates

Substance | mass of product greater than substrate peptide (hydroxylation) (JMJD2E (KDM4E) [1]) [Da] | KM, Vmax and kcat compared with other peptides (JMJD2E (KDM4E) [2])
ART-Lys(Me3)-QTAR-Lys(Me/iPr)-STGGKA [H3 Lysine-9(Me/iPr)] | 16 | –
ART-Lys(Me3)-QTAR-Lys(iPr)-STGGKA [H3 Lysine-9(iPr)] | 16 | higher than values for the other three peptides
